Test results as given in patent US20030105118A1, “Tricyclic quinazolinediones” (priority 2002, published 2003).
pIC50: −log10 of the molar value. Where a name gives a salt, the structure may show the parent alone.

Assays:
[1] = biological target: T1, recombinant human PARP (Homo sapiens, UniProt P09874); experiment: PARP inhibitory activity ([3H]NAD incorporation, filter assay); type: biochemical; details: recombinant human PARP 2 units/ml, 0.3 μM [3H]NAD, DNA 3 μg/ml, room temperature 1.5 hour, duplicate; read-out: IC50 (inhibitory rate of PARP activity)
T1 construct: purchased Trevigen, Inc. (USA)
Protocol: PARP (recombinant human PARP, 660 units/mg) (Trevigen, Inc. (USA))
A buffer (50 mM Tris-HCl (pH8.0)/25 mM MgCl2 aqueous solution) was used in preparation of each solution.
To a 96-well round bottom plate made of polypropylene were added successively a test compound solution (20 μl/well), 1 μM [^3H]NAD (specific activity: 7 kBq/ml) containing 10 μg/ml of DNA (30 μl/well), and 4 units/ml (6 μg/ml) PARP solution (50 μl/well), and the plate was placed under room temperature for 1.5 hour for the reaction (final concentrations of each reagent in the reaction solution: DNA: 3 μg/ml; [^3H]NAD: 0.3 μM/specific activity of 2.1 kBq/ml; PARP: 2 units/ml (3 μg/ml)). The reaction was terminated by addition of a 24 mM benzamide (9 μl/well, 2 mM after the addition), and the PARP in the reaction solution was recovered by using a cell harvester (HARVESTER 96 (registered trade name), TOMTEC Inc. (USA)) on the glass fiber filter for plate. Said glass fiber filter had been soaked with 80% ethanol just prior to the recovary of PARP, and after the recovary of PARP, each well of the plate was washed four times with 80% ethanol, and the washings were also passed through the glass fiber filter. Said glass fiber filter was dried by heating with a microwave oven for 3 to 4 minutes, and put into a sample bag being sandwiched between 2 solid scintillant sheets, and said sample bag was sealed by heat sealing. The bag was put on a heater at about 50° C. to melt the scintillant with heat in order to penetrate it into the filter. The plate was cooled to room temperature, and the [^3H] count of poly(ADP-ribose) (cpm) bound to PARP was measured with a counter for plate (1450 MicroBeta (registered trade name) TriLux, PerkinElmer, Inc. (USA)) for 10 minutes per plate.
The inhibitory rate of PARP activity was calculated by the following equation. [formula]
The inhibitory rate of each test compound was measured in duplicate, and an IC50 value thereof was calculated therefrom.

T1 sequence (P09874 whole entry): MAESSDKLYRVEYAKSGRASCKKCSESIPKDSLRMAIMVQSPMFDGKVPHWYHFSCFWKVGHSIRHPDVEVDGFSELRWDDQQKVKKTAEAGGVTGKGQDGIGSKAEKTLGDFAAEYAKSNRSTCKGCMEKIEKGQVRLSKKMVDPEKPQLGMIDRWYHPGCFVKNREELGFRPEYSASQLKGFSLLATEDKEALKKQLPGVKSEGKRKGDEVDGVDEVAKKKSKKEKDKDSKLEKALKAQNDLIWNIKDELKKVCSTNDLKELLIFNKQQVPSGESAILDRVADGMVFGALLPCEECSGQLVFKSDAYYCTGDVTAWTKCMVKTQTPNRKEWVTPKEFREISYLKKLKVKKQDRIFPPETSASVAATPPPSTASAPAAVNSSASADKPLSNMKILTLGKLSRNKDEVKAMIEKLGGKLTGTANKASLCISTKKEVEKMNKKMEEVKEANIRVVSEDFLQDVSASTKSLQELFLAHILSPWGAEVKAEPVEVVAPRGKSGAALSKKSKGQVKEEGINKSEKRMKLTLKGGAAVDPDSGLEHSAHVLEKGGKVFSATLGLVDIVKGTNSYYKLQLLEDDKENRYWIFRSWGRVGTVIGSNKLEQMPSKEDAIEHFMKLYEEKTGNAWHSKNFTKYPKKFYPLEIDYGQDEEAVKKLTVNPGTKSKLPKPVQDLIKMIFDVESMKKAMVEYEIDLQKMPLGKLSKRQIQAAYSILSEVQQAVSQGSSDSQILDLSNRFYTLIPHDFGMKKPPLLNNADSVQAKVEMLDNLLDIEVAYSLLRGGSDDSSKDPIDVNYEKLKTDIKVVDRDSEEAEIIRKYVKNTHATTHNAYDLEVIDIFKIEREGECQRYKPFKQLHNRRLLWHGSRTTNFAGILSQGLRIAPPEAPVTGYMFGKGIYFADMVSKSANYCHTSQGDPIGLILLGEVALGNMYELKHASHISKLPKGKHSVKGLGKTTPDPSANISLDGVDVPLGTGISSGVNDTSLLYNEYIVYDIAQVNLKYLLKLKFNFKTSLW

Compound | melting point | pIC50 [1]
O=C(NCC1Cc2cccc3c(=O)[nH]c(=O)n(c23)C1)c1ccccn1 (centres unmarked) [Example 24, N-[(1,3-Dioxo-2,3,6,7-tetrahydro-1H,5H-pyrido[3,2,1-ij]quinazolin-6-yl)methyl]-2-pyridinecarboxamide] | 247 to 250 °C | –
CN(C)c1ccccc1C(=O)NCC1Cc2cccc3c(=O)[nH]c(=O)n(c23)C1 (centres unmarked) [Example 27, 2-(Dimethylamino)-N-[(1,3-dioxo-2,3,6,7-tetrahydro-1H,5H-pyrido[3,2,1-ij]quinazolin-6-yl)methyl]benzamide] | 220 to 236 °C | –
O=c1[nH]c(=O)n2c3c(cccc13)C(O)C2 (centres unmarked) [Example 46, 6-hydroxy-5,6-dihydro-1H-pyrrolo[3,2,1-ij]quinazoline-1,3(2H)-dione] | 260 to 266 °C (dec.) | –
O=c1[nH]c(=O)n2c3c(cccc13)CC(CBr)C2 (centres unmarked) [Example 9, 6-(Bromomethyl)-6,7-dihydro-1H,5H-pyrido[3,2,1-ij]quinazoline-1,3(2H)-dione] | 267 to 270 °C (dec.) | –
Cl.NC1Cc2cccc3c(=O)[nH]c(=O)n(c23)C1 (centres unmarked) | > 300 °C | –
O=c1[nH]c(=O)n2c3c(cccc13)CCC2CO (centres unmarked) [Example 3, 5-(hydroxymethyl)-6,7-dihydro-1H,5H-pyrido[3,2,1-ij]-quinazoline-1,3(2H)-dione] | 205 to 207 °C | –
Cl.NCC1CCn2c(=O)[nH]c(=O)c3cccc1c32 (centres unmarked) | 190 °C (dec.) | –
Cl.NCCC(=O)NCC1Cc2cccc3c(=O)[nH]c(=O)n1c23 (centres unmarked) | 290 to 296 °C (dec.) | –
CN1CCC(C(=O)NCC2Cc3cccc4c(=O)[nH]c(=O)n(c34)C2)CC1 (centres unmarked) [Example 34, N-[(1,3-Dioxo-2,3,6,7-tetrahydro-1H,5H-pyrido[3,2,1-ij]quinazolin-6-yl)methyl]-1-methyl-4-piperidinecarboxamide] | 246 to 250 °C (dec.) | –
O=C(NCC1Cc2cccc3c(=O)[nH]c(=O)n(c23)C1)c1ccnnc1 (centres unmarked) [Example 32, N-[(1,3-Dioxo-2,3,6,7-tetrahydro-1H,5H-pyrido[3,2,1-ij]quinazolin-6-yl)methyl]-4-pyridazinecarboxamide] | 279 to 281 °C (dec.) | –
CN(C)Cc1ccc(C(=O)NCC2Cc3cccc4c(=O)[nH]c(=O)n(c34)C2)cc1 (centres unmarked) [Example 33, 4-[(Dimethylamino)methyl]-N-[(1,3-dioxo-2,3,6,7-tetrahydro-1H,5H-pyrido[3,2,1-ij]quinazolin-6-yl)methyl]benzamide] | 240 to 243 °C (dec.) | –
Cl.NCC1Cc2cccc3c(=O)[nH]c(=O)n1c23 (centres unmarked) | > 300 °C | –
CN(C)c1cccc(C(=O)NCC2Cc3cccc4c(=O)[nH]c(=O)n(c34)C2)c1 (centres unmarked) [Example 28, 3-(Dimethylamino)-N-[(1,3-dioxo-2,3,6,7-tetrahydro-1H,5H-pyrido[3,2,1-ij]quinazolin-6-yl)methyl]benzamide] | 158 to 170 °C | –
O=c1[nH]c(=O)n2c3c(cccc13)C(CBr)CC2 (centres unmarked) [Example 10, 7-(Bromomethyl)-6,7-dihydro-1H,5H-pyrido[3,2,1-ij]quinazoline-1,3(2H)-dione] | 225 °C (dec.) | –
O=c1[nH]c(=O)n2c3c(cccc13)CCC2 [Example 2, 6,7-Dihydro-1H,5H-pyrido[3,2,1-ij]quinazoline-1,3(2H)-dione] | 282 to 284 °C | 7.28
O=c1[nH]c(=O)n2c3c(cccc13)CC2CO (centres unmarked) [Example 4, 5-(Hydroxymethyl)-5,6-dihydro-1H-pyrrolo[3,2,1-ij]quinazoline-1,3(2H)-dione] | 238 to 240 °C | –
O=C(NCC1Cc2cccc3c(=O)[nH]c(=O)n(c23)C1)C1CCCCC1 (centres unmarked) [Example 30, N-[(1,3-Dioxo-2,3,6,7-tetrahydro-1H,5H-pyrido[3,2,1-ij]quinazolin-6-yl)methyl]cyclohexanecarboxamide] | 280 to 281 °C (dec.) | –
O=c1[nH]c(=O)n2c3c(cccc13)C(CO)CC2 (centres unmarked) [Example 6, 7-(Hydroxymethyl)-6,7-dihydro-1H,5H-pyrido[3,2,1-ij]quinazoline-1,3(2H)-dione] | 226 °C (dec.) | –
O=C(NCC1Cc2cccc3c(=O)[nH]c(=O)n(c23)C1)c1ccncc1 (centres unmarked) [Example 23, N-[(1,3-Dioxo-2,3,6,7-tetrahydro-1H,5H-pyrido[3,2,1-ij]quinazolin-6-yl)methyl]isonicotinamide] | 282 to 285 °C | –
O=c1[nH]c(=O)n2c3c(cccc13)CC(CO)C2 (centres unmarked) [Example 5, 6-(Hydroxymethyl)-6,7-dihydro-1H,5H-pyrido[3,2,1-ij]quinazoline-1,3(2H)-dione] | 252 to 254 °C | –
Cl.NCC1CCc2cccc3c(=O)[nH]c(=O)n1c23 (centres unmarked) | > 300 °C | –
O=C(Cc1ccccc1)NCC1Cc2cccc3c(=O)[nH]c(=O)n(c23)C1 (centres unmarked) [Example 26, N-[(1,3-Dioxo-2,3,6,7-tetrahydro-1H,5H-pyrido[3,2,1-ij]quinazolin-6-yl)methyl]-2-phenylacetamide] | 275 °C (dec.) | –
O=C(NCC1Cc2cccc3c(=O)[nH]c(=O)n(c23)C1)c1cnccn1 (centres unmarked) [Example 31, N-[(1,3-Dioxo-2,3,6,7-tetrahydro-1H,5H-pyrido[3,2,1-ij]quinazolin-6-yl)methyl]-2-pyrazinecarboxamide] | 255 to 257 °C (dec.) | –
O=C(NCC1Cc2cccc3c(=O)[nH]c(=O)n(c23)C1)C1CCN(Cc2ccccc2)CC1 (centres unmarked) [Example 35, 1-Benzyl-N-[(1,3-dioxo-2,3,6,7-tetrahydro-1H,5H-pyrido[3,2,1-ij]-quinazolin-6-yl)methyl]-4-piperidinecarboxamide] | 240 to 242 °C (dec.) | –
Cl.NCc1ccc(C(=O)NCC2Cc3cccc4c(=O)[nH]c(=O)n(c34)C2)cc1 (centres unmarked) | > 300 °C | –
CN(C)c1ccc(C(=O)NCC2Cc3cccc4c(=O)[nH]c(=O)n(c34)C2)cc1 (centres unmarked) [Example 29, 4-(Dimethylamino)-N-[(1,3-dioxo-2,3,6,7-tetrahydro-1H,5H-pyrido[3,2,1-ij]quinazolin-6-yl)methyl]benzamide] | 268 to 278 °C (dec.) | > 8.30
O=c1[nH]c(=O)n2c3c(cccc13)CCCC2 [Example 48, 5,6,7,8-Tetrahydro-1H-azepino[3,2,1-ij]quinazoline-1,3(2H)-dione] | 192 to 196 °C | –
O=c1[nH]c(=O)n2c3c(cccc13)CC2 [Example 1, 5,6-dihydro-1H-pyrrolo[3,2,1-ij]quinazoline-1,3(2H)-dione] | 314 to 315 °C | 6.85
O=C(NCC1Cc2cccc3c(=O)[nH]c(=O)n(c23)C1)C1CCNCC1 (centres unmarked) [Example 39, N-[(1,3-Dioxo-2,3,6,7-tetrahydro-1H,5H-pyrido[3,2,1-ij]quinazolin-6-yl)methyl]-4-piperidinecarboxamide hydrochloride] | – | 8.13
